For this experiment, the target named is BRD4 (BD1+BD2) bromodomain (Homo sapiens (Human), UniProt O60885). Briefly: BRD4 binding inhibition (AlphaScreen, GST-BRD4 vs tetraacetylated histone H4 peptide). Put shortly: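 GST-BRD4 (BD1+BD2) and biotinylated tetraacetyl-histone H4 peptide, each at 100 nM in HEPES pH 7.4 buffer with BSA and DTT, were combined with compound. Glutathione acceptor and streptavidin donor beads were added, then incubated 30 min at room temperature in the dark. Read-out was AlphaScreen signal.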
For orientation: In Alpha technology, singlet oxygen from a donor bead excites a nearby acceptor bead.

Where [1] appears, read: GST-BRD4 (BD1+BD2) vs biotinylated acetyl-histone H4 peptide, AlphaScreen, read-out: BRD4 IC50.
[2] abbreviates: GST-BRD4 (BD1+BD2) / biotinylated acetyl-histone H4 (Lys5,8,12,16) peptide, read-out: IC50, BRD4 binding inhibition.

Where two headings read alike, the source gives them in different places. A value given as a limit tells only on which side of the number the result lay.

As a reminder, the IC50 is the midpoint of a concentration-inhibition curve. Consider `Cc1nnc2c(NCCCCNC(=O)[C@H](O)C(C)C)nc3cc(N4CCSCC4)ccc3n12` [Example 524, N-[4-(7-thiomorphonyl-4-yl-1-methyl-[1,2,4]triazolo[4,3-a]quinoxaline-4-ylamino)-butyl]-2-(R)-hydroxy-3-methyl-butyramide], for which the IC50 under setting [1] was determined as 69 nM.

Regarding `COC(=O)c1ccc2nc(NCCCCNC(=O)OC(C)(C)C)c3nnc(C)n3c2c1` [Example 530, 4-(4-tert-butoxycarbonylamino-butylamino)-1-methyl-[1,2,4]triazolo[4,3-a]quinoxaline-8-carboxylic acid methylester], the IC50 was at most 50 nM under setting [2] and 34 nM under setting [1].

For the compound `Cc1nnc2c(NCCCCNC(=O)OC(C)(C)C)nc3ccc(C(=O)NC(C)C)cc3n12` [Example 532, [4-(8-isopropylcarbamoyl-1-methyl-[1,2,4]triazolo[4,3-a]quinoxaline-4-ylamino)-butyl]-carbamic acid-tert-butylester], under setting [1], the IC50 was 75 nM.

For `Cc1nnc2c(NCCCCNC(=O)OC(C)(C)C)nc3ccc(C(N)=O)cc3n12` [Example 533, [4-(8-carbamoyl-1-methyl-[1,2,4]triazolo[4,3-a]quinoxaline-4-ylamino)-butyl]-carbamic acid-tert-butylester], the IC50 under setting [1] stood at 67 nM.

`Cc1nnc2c(NCCCCNC(=O)c3ccccc3)nc3ccc(C(=O)NCCN(C)C)cc3n12` [Example 537, 4-(4-benzoylamino)-1-methyl-[1,2,4]triazolo[4,3-a]quinoxaline-8-carboxylic acid-(2-dimethylamino-ethyl)-amide]: under setting [1], the IC50 was found to be 93 nM.

In the case of `Cc1nnc2c(NCCCCNC(=O)OC(C)(C)C)nc3ccc(C(=O)Nc4ccccc4)cc3n12` [Example 538, [4-(1-methyl-8-phenylcarbamoyl-[1,2,4]triazolo[4,3-a]quinoxaline-4-ylamino)-butyl]-carbamic acid-tert-butylester], under setting [1], the IC50 was 69 nM.

Consider `Cc1nnc2c(NCCCCNC(=O)OC(C)(C)C)nc3ccc([N+](=O)[O-])cc3n12` [Example 541, [4-(1-methyl-8-nitro-[1,2,4]triazolo[4,3-a]quinoxaline-4-ylamino)-butyl]-carbamic acid-tert-butylester], for which the IC50 was at most 50 nM under setting [2] and 37 nM under setting [1].

`Cc1nnc2c(NCCCCNC(=O)OC(C)(C)C)nc3ccc(N)cc3n12` [Example 542, [4-(8-amino-1-methyl-[1,2,4]triazolo[4,3-a]quinoxaline-4-ylamino)-butyl]-carbamic acid-tert-butylester]: under setting [1], the IC50 was 61 nM.

Turning to `Cc1nnc2c(NCCCCNC(=O)C(C)(C)C)nc3ccc(NC(=O)C(C)C)cc3n12` [Example 545], the IC50 under setting [1] stood at 65 nM.

Turning to `CC(=O)Nc1ccc2nc(NCCCCNC(=O)OC(C)(C)C)c3nnc(C)n3c2c1` [Example 546, [4-(8-acetamino-1-methyl-[1,2,4]triazolo[4,3-a]quinoxaline-4-ylamino)-butyl]-carbamic acid-tert-butylester], the IC50 under setting [2] is at most 50 nM.

Consider `CC(=O)Nc1ccc2nc(NCCCCNC(=O)C(C)(C)C)c3nnc(C)n3c2c1` [Example 547, N-[4-(8-acetamino-1-methyl-[1,2,4]triazolo[4,3-a]quinoxaline-4-ylamino)-butyl]-2,2-dimethyl-propionamide], for which the IC50 under setting [2] is at most 50 nM.

For the compound `CC(=O)Nc1ccc2nc(NCCCCNC(=O)c3ccccc3)c3nnc(C)n3c2c1` [Example 548, N-[4-(8-acetamino-1-methyl-[1,2,4]triazolo[4,3-a]quinoxaline-4-ylamino)-butyl]-benzamide], the IC50 is at most 50 nM under setting [2] and 45 nM under setting [1].

On to `Cc1noc(C)c1-c1ccc2nc(NCCCCNC(=O)OC(C)(C)C)c3nnc(C)n3c2c1` [Example 578, {4-[8-(3,5-dimethyl-isoxazol-4-yl)-1-methyl-[1,2,4]triazolo[4,3-a]quinoxaline-4-ylamino]-butyl}-carbamic acid-tert-butylester], for which the IC50 is, setting by setting: under setting [2], at most 50 nM; under setting [1], 30 nM.

Take `Cc1noc(C)c1-c1ccc2nc(NCCCCN)c3nnc(C)n3c2c1` [Example 579, N^1-[8-(3,5-dimethyl-isoxazol-4-yl)-1-methyl-[1,2,4]triazolo[4,3-a]quinoxaline-4-yl]-butane-1,4-diamine ditrifluoroacetic acid]: the IC50 was at most 10 nM under setting [2] and 5 nM under setting [1].

With `Cc1noc(C)c1-c1ccc2nc(NCCCCNC(=O)[C@H](O)C(C)C)c3nnc(C)n3c2c1` [Example 581, N-{4-[8-(3,5-dimethyl-isoxazol-4-yl)-1-methyl-[1,2,4]triazolo[4,3-a]quinoxaline-4-ylamino]-butyl}-2-(R)-hydroxy-3-methyl-butyramide], the IC50 is at most 50 nM under setting [2] and 24 nM under setting [1].

Regarding `Cc1noc(C)c1-c1ccc2nc(NCCCCNC(=O)[C@@H](O)C(C)C)c3nnc(C)n3c2c1` [Example 582, N-{4-[8-(3,5-dimethyl-isoxazol-4-yl)-1-methyl-[1,2,4]triazolo[4,3-a]quinoxaline-4-ylamino]-butyl}-2-(S)-hydroxy-3-methyl-butyramide], the IC50 is, setting by setting: under setting [2], at most 10 nM; under setting [1], 10 nM.

With `Cc1noc(C)c1-c1ccc2c(c1)nc(NCCCCNC(=O)OC(C)(C)C)c1nnc(C)n12` [Example 583, {4-[7-(3,5-dimethyl-isoxazol-4-yl)-1-methyl-[1,2,4]triazolo[4,3-a]quinoxaline-4-ylamino]-butyl}-carbamic acid-tert-butylester], the IC50 is at most 10 nM under setting [2] and 5 nM under setting [1].

For the compound `Cc1noc(C)c1-c1ccc2c(c1)nc(NCCCCNC(=O)[C@H](O)C(C)C)c1nnc(C)n12` [Example 586, N-{4-[7-(3,5-dimethyl-isoxazol-4-yl)-1-methyl-[1,2,4]triazolo[4,3-a]quinoxaline-4-ylamino]-butyl}-2-(R)-hydroxy-3-methyl-butyramide], the IC50 is at most 50 nM under setting [2] and 24 nM under setting [1].

Turning to `Cc1noc(C)c1-c1ccc2c(c1)nc(NCCCCNC(=O)[C@@H](O)C(C)C)c1nnc(C)n12` [Example 587, N-{4-[7-(3,5-dimethyl-isoxazol-4-yl)-1-methyl-[1,2,4]triazolo[4,3-a]quinoxaline-4-ylamino]-butyl}-2-(S)-hydroxy-3-methyl-butyramide], the IC50 runs as follows: under setting [2], at most 10 nM; under setting [1], 7 nM.

As for `COc1ccc2c(c1)nc(NCCCCNC(=O)OC(C)C)c1nnc(C(F)(F)F)n12` [Example 589, [4-(7-methoxy-1-trifluoromethyl-[1,2,4]triazolo[4,3-a]quinoxaline-4-ylamino)-butyl]-carbamic acid isopropylester], the IC50 reads like this: under setting [2], at most 50 nM; under setting [1], 46 nM.

As for `COc1cc2nc(NCCCCNC(=O)CC(C)C)c3nnc(C(F)(F)F)n3c2cc1OC` [Example 593, N-[4-(7,8-dimethoxy-1-trifluoromethyl-[1,2,4]triazolo[4,3-a]quinoxaline-4-ylamino)-butyl]-3-methyl-butyramide], the IC50 under setting [1] turned out to be 92 nM.

As for `COc1cc2nc(NCCCCNC(=O)CC(C)C)c3nnc(C(C)C)n3c2cc1OC` [Example 603, N-[4-(1-isopropyl-7,8-dimethoxy-[1,2,4]triazolo[4,3-a]quinoxaline-4-ylamino)-butyl]-3-methyl-butyramide], the IC50 under setting [2] is at most 50 nM and the 50% inhibitory concentration (IC50) under setting [1] was 34 nM.

On to `COc1ccc2c(c1)nc(NCCCCNC(=O)CC(C)C)c1nnc(C(C)C)n12` [Example 627], for which the IC50 under setting [2] was at most 50 nM and the IC50 under setting [1] came out at 23 nM.

As for `COc1ccc2c(c1)nc(NCCCCNC(=O)OC(C)C)c1nnc(C(C)C)n12` [Example 628, [4-(1-isopropyl-7-methoxy-[1,2,4]triazolo[4,3-a]quinoxaline-4-ylamino)-butyl]-carbamic acid isopropylester], the IC50 was at most 50 nM under setting [2] and 48 nM under setting [1].

For the compound `COc1ccc2c(c1)nc(NCCCCNC(=O)OCC(C)C)c1nnc(C(C)C)n12` [Example 629, [4-(1-isopropyl-7-methoxy-[1,2,4]triazolo[4,3-a]quinoxaline-4-ylamino)-butyl]-carbamic acid isobutylester], the IC50 under setting [2] is at most 50 nM and the IC50 under setting [1] was found to be 16 nM.

As to `Cc1nnc2c(NCCCCOC(=O)C(C)(C)C)nc3ccccc3n12` [Example 631, 2,2-dimethyl-propionic acid-4-(1-methyl-[1,2,4]triazolo[4,3-a]quinoxaline-4-ylamino)-butylester], the IC50 by setting is: under setting [2], at most 50 nM; under setting [1], 47 nM.

With `Cc1nnc2c(NCCCCOC(=O)C(C)C)nc3ccccc3n12` [Example 632], the IC50 reads like this: under setting [2], at most 50 nM; under setting [1], 44 nM.

On to `Cc1nnc2c(NCCCCOC(=O)c3ccccc3)nc3ccccc3n12` [Example 634, benzoic acid-4-(1-methyl-[1,2,4]triazolo[4,3-a]quinoxaline-4-ylamino)-butylester], for which the IC50 under setting [1] came out at 91 nM.

As to `COc1cc2nc(NCCCCCNC(=O)OC(C)(C)C)c3nnc(C)n3c2cc1OC` [Example 642, [5-(7,8-dimethoxy-1-methyl-[1,2,4]triazolo[4,3-a]quinoxaline-4-ylamino)-pentyl]-carbamic acid-tert-butylester], the IC50 under setting [1] was determined as 56 nM.

For the compound `COc1cc2nc(NCCCCC(=O)NC(C)(C)C)c3nnc(C)n3c2cc1OC` [Example 646], under setting [1], the IC50 amounted to 56 nM.

Turning to `COc1cc2nc(NCCCCC(=O)NC(C)C)c3nnc(C)n3c2cc1OC` [Example 647, 5-(7,8-dimethoxy-1-methyl-[1,2,4]triazolo[4,3-a]quinoxaline-4-ylamino)-pentanoic acid-isopropylamide], the IC50 by setting is: under setting [2], at most 50 nM; under setting [1], 29 nM.

As for `COc1ccc2c(c1)nc(NCCCCC(=O)NC(C)(C)C)c1nnc(C)n12` [Example 653, 5-(7-methoxy-1-methyl-[1,2,4]triazolo[4,3-a]quinoxaline-4-ylamino)-pentanoic acid-tert-butylamide], the IC50 was at most 50 nM under setting [2] and 16 nM under setting [1].
